# Test results taken from article PMC12667295, “A surrogate barrier model for high-throughput blood-brain barrier permeability prediction: integrating LLC-PK1-MOCK/MDR1 Cells and lysosomal trapping correction” (Drug Delivery, 2025).
# Where two headings read alike, the source gives them in different places.
# Experiments:
# [1] = LLC-PK1 MOCK/MDR1 monolayer model, results stated for both cell lines jointly; conditions: pig
# Description: Monitoring of TEER value and LY permeability. After the LLC-PK1 MOCK/MDR1 cells attach to the Transwell insert, TEER (Transepithelial Electrical Resistance) values were continuously recorded using a cell resistance meter (Beijing JINGONGHONGTAI Technology Co., Ltd). These TEER values represent the mean from six individual inserts (n = 6) measured per group. The TEER measurement and transport experiment were conducted at 37 °C, using a heating plate to maintain the required temperature. The transmembrane resistance was calculated using the formula TEER = (Rtotal-Rblank) × Aarea, where Rblank represents the TEER of the blank chamber.
# The permeability of the Lucifer Yellow CH Dipotassium Salt (LY, 100 μM) across the monolayers was measured in apical-to-basolateral direction to monitor the integrity of the cell monolayer.
# Bidirectional transport experiments. […] The transwell experiments were conducted following above-mentioned procedure.
# [2] = parameters: method as in not given; conditions: stated without method; ref not given; cited from earlier work
# [3] = cited from earlier work
# [4] = Bidirectional transport across LLC-PK1 MOCK monolayer (Transwell); conditions: pig; for recovery at 2 h, 2 µM: pH 7.4, Recovery after correction of intracellular accumulation data, cell lysate included, mean±SD, n=3;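 as to all read-outs here: compound quantified by LC-MS/MS in donor and receiver wells, efflux ratio as B-A over A-B Papp, recovery relative to initial donor amount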
# Description: (§3) Cells were passaged at 80−90% confluence (every 2−3 days) using trypsin-EDTA solution. […] The culture medium was replaced every other day, including 200 µL culture medium in the apical and 850 µL cell culture medium in the basolateral side. LLC-PK1 MOCK cells were used at passages of 3−30. LLC-PK1-MDR1 cells were cultured and passaged in the same manner as LLC-PK1 cells except at the density of 1 × 10^4 cells per well. LLC-PK1-MDR1 cells were used at passages of 3−25. For LLC-PK1 MOCK cells and LLC-PK1-MDR1 cells, the experiments were performed on the 4th and 7th day after seeding.
# (§4) Samples were collected from the donor well at the start of the incubation (50 µL) as C0, and from the donor and receiver wells at the end of the incubation (50 µL). All samples were stored at - 40 °C for LC-MS/MS analysis.
# (§5) Bidirectional transport experiments. […] The transwell experiments were conducted following above-mentioned procedure. […] When the recovery rate of the tested drug is below 80%, the possibility of intracellular accumulation should be considered. The polycarbonate (PC) membrane where cells are grown should be carefully peeled off from the cell culture medium and placed in 100 µL of HBSS buffer solution. […] The process was carried out on ice to prevent heat-induced degradation, applying a power in the range of 300 W for a total duration of 20 minutes. Thereafter, a quantitative analysis of the intracellular drug was conducted, and the drug recovery rate was recalculated based on this analysis.
# (§6) The apparent permeability coefficient (Papp, cm/s) was calculated for each transport direction, A-B and B-A, using the following equation: Papp=dQ/dt×1/A×C0 where dQ/dt is the permeation rate (µmol/s), A is the surface area of the insert (0.33 cm^2, Corning), and C0 is the initial donor concentration (µM).
# (§7) The efflux ratio (ER) is calculated as the ratio of Papp (B-A)/Papp (A-B). Recovery=TRcumrf+Cdf×VD/Cdi×VD×100% Where TRcumrf is the cumulative transported mass in the receiver chamber at the end of the incubation (nmol), Cdf is the concentration of the drug in the donor chamber at the end of the incubation (μM), VD is the volume of the donor chamber (mL), and Cdi is the initial concentration of the drug in the donor chamber (μM).
# (§8) The method of the bidirectional transport experiment was the same as before.
# [5] = test system: P-gp (human MDR1); test: Bidirectional transport across LLC-PK1-MDR1 monolayer stably expressing human MDR1 (P-gp) (Transwell); conditions: pig;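 also: 2 h incubation at 37 °C, receiver HBSS with 10 mM Hepes plus 1% BSA, LC-MS/MS of donor and receiver, recovery as receiver plus donor amount over initial donor amount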
# [6] = test system: LLC-PK1-MDR1 cells
# [7] = in vitro; conditions: pig, pH 7.4
# Description: as §3, §4, §5, §6, §7, §8
# [8] = test system: LLC-PK1-MDR1 cells; test: Bidirectional transport across LLC-PK1-MDR1 monolayer stably expressing human MDR1 (P-gp) (Transwell); conditions: LLC-PK1-MDR1, with 5 μM tariquidar vs without;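 also: 2 h incubation at 37 °C, receiver HBSS with 10 mM Hepes plus 1% BSA, LC-MS/MS of donor and receiver, recovery as receiver plus donor amount over initial donor amount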
# [9] = Protein binding in rat brain homogenate (equilibrium dialysis)
# Description: (§1) Stocks (10 mM) of test compounds were diluted to 5 μM with plasma or tissue homogenate and dialyzed at 37 °C for 6 hours in a shaking incubator. After incubation aliquots of both plasma or tissue homogenate and buffer from the device were taken and added to equal volumes of blank buffer and plasma or tissue homogenate respectively. Samples were then diluted in acetonitrile containing an internal standard prior to centrifugation and analysis of the supernatants by LC-MS/MS. The fu, plasma was calculated using Equation 1:(1) fu,plasma=Concbuffer chamber/Concsample chamber
# Rat fraction unbound in brain (fu, brain) was determined as the ratio of concentration in buffer to that in brain.
# (§2) Unbound fractions of test drugs in plasma (fu,plasma) and brain tissue (fu,brain). For compounds with existing rat plasma or brain protein-binding data from literature or internal studies, values were directly adopted.
# [10] = Brain distribution in rats (Kp,brain, Kp,uu,brain); conditions: rat
# From the text: In vivo unbound brain distribution data (Kp,uu,Brain) for 16 drugs and total brain distribution data (Kp,Brain) for 16 drugs was acquired from literature. […] For each tested compound, fifteen rats were randomly divided into five groups of three rats each. […] The time of execution of the rats by CO2 inhalation after administration was optimized according to the in vivo elimination rate to achieve five concentrations of different time points. After the rats were euthanized, cardiac puncture was performed immediately to remove as much whole blood as possible (~7 ml) from the systemic circulation (Quantitatively aliquot 0.2 ml of whole blood for the determination of drug concentration in plasma). Afterwards, the brain tissue was collected immediately and rinsed repeatedly with ice-cold saline 3 times. Then, the surface saline was blotted dry with clean filter paper to remove as much residual drug in the blood vessels as possible. Plasma samples were prepared by centrifugation of the blood samples at 2,500 g for 10 minutes at 4 °C. All brain samples were homogenized by adding 4-fold volume water. All samples were stored at -40 °C before LC-MS/MS analysis. […] The brain tissue partition coefficient (Kp, brain) and brain-to-plasma unbound drug partition ratio (Kp,uu, brain) are calculated according to the following formulas, respectively: Kp,brain=AUC(0−∞,brain)/AUC(0−∞,plasma)Kp,uu,brain=Kp,brain×(fu,tissue/fu,plasma)
# Free brain-to-plasma distribution coefficients (Kp,uu,brain) of 41 drugs. Brain distribution coefficients (Kp,uu,brain) were calculated for 41 drugs. […] Plasma and brain concentration-time profiles were generated, and AUC(0-t) values for both matrices were calculated using WinNolin 8.1. Kp,brain was derived as the ratio of brain-to-plasma AUC(0-t).
# Kp,uu,brain values were computed by normalizing Kp,brain to unbound fractions (fu,plasma and fu,brain).
# [11] = test system: P-gp (human MDR1); test: in vitro; conditions: pig, LLC-PK1, pH 7.4
# [12] = footnote a; ref Internal data; cited from earlier work
# [13] = in vitro; conditions: rat, plasma
# Description: as §1, §2
# [14] = test system: LLC-PK1 MOCK cells; test: Bidirectional transport across LLC-PK1 MOCK monolayer (Transwell); conditions: LLC-PK1 MOCK, 2 µM, 2 h, mean ± s, n = 3; BLQ = below 2 nM;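 also: compound quantified by LC-MS/MS in donor and receiver wells, efflux ratio as B-A over A-B Papp, recovery relative to initial donor amount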
# Description: as §3, §4, §5, §6, §7, §8
# [15] = LLC-PK1, pH 7.4, ER, LLC-PK1 MOCK, Papp (B-A)/Papp (A-B)
# [16] = LLC-PK1, pH 7.4, Papp A-B, LLC-PK1 MOCK, 2 µM, 2 h, mean ± s, n = 3, BLQ = below 2 nM
# [17] = LLC-PK1, pH 7.4, ER, LLC-PK1-MDR1, Papp (B-A)/Papp (A-B)
# [18] = LLC-PK1, pH 7.4, Papp A-B, LLC-PK1-MDR1, 2 µM, 2 h, mean ± s, n = 3
# [19] = LLC-PK1 MOCK cell monolayer (Transwell)
Compound,pKa [2],"Papp B→A at 2 h, 2 µM ([4]; LLC-PK1, pH 7.4)","efflux ratio at 2 h, 2 µM [4, 15]","Papp A→B at 2 h, 2 µM [4, 16]","Papp B→A at 2 h, 2 µM ([5]; LLC-PK1, pH 7.4)","efflux ratio at 2 h, 2 µM [5, 17]","Papp A→B at 2 h, 2 µM [5, 18]","recovery at 2 h, 2 µM [7, 19]","Papp A→B at 2 h, 2 µM ([5]; LLC-PK1, pH 7.4)","Papp A→B at 2 h, 2 µM ([4]; LLC-PK1, pH 7.4)","recovery at 2 h, 2 µM [11]","Kp, Brain ([3]; footnote a, ref Internal data)",also measured
CN(C)CCC=C1c2ccccc2CCc2ccccc21 [Amitriptyline],> 7,13.8 ± 1.58 ×10⁻⁶ cm/s,1.38,9.98 ± 0.69 ×10⁻⁶ cm/s,12.7 ± 1.19 ×10⁻⁶ cm/s,1.85,6.84 ± 0.72 ×10⁻⁶ cm/s,,,,,,"recovery at 2 µM ([1]; LLC-PK1 MOCK and LLC-PK1-MDR1 cell monolayers (Transwell), pH 7.4, Recovery after cell lysate extraction, intracellular drug included): > 80%; recovery at 2 µM ([1]; LLC-PK1 MOCK and LLC-PK1-MDR1 cell monolayers (Transwell), pH 7.4, Recovery, bidirectional transport, uncorrected): < 80%; recovery at 2 µM ([1]; LLC-PK1 MOCK and LLC-PK1-MDR1 cell monolayers (Transwell), pH 7.4, with bafilomycin A1 1 µM (inhibitor of lysosomal function), Recovery, with 1 µM Bafilomycin A1, bidirectional transport): 80 to 120%; Kp, Brain ([3]; ref Fridén [2009]): 20.15; Kp,uu,Brian ([3]; ref Fridén [2009]): 0.73; recovery at 2 h, 2 µM ([4]; LLC-PK1 MOCK cell monolayer (Transwell), A-B, LLC-PK1 MOCK): 80.01 ± 0.69%; recovery at 2 h, 2 µM ([4]; LLC-PK1 MOCK cell monolayer (Transwell), B-A, LLC-PK1 MOCK): 90 ± 9.68%"
C[C@H]1O[C@@H](O[C@H]2[C@@H](O)C[C@H](O[C@H]3[C@@H](O)C[C@H](O[C@H]4CC[C@@]5(C)[C@H](CC[C@@H]6[C@@H]5C[C@@H](O)[C@]5(C)[C@@H](C7=CC(=O)OC7)CC[C@]65O)C4)O[C@@H]3C)O[C@@H]2C)C[C@H](O)[C@@H]1O [Digoxin],,1.75 ± 0.07 ×10⁻⁶ cm/s,,1.91 ± 0.13 ×10⁻⁶ cm/s,7.79 ± 0.91 ×10⁻⁶ cm/s,,,95 ± 5.24%,1.15 ± 0.28 ×10⁻⁶ cm/s,,,,"recovery [6]: 109 ± 16%; Papp at 2 h, 2 µM ([4]; LLC-PK1, pH 7.4): 2.17 ×10⁻⁶ cm/s; Papp at 2 h, 2 µM ([4]; LLC-PK1, pH 7.4, with tariquidar 5 µM (P-gp inhibitor)): 2.1 ×10⁻⁶ cm/s; increase in apical-to-basolateral (A→B) permeability [8]: 3.97 fold"
COc1ccc2cc1Oc1ccc(cc1)C[C@H]1c3cc(c(OC)cc3CCN1C)Oc1c(OC)c(OC)cc3c1[C@H](C2)N(C)CC3 [Tetrandrine],> 7,4.19 ± 0.77 ×10⁻⁶ cm/s,1.33,,13 ± 2.24 ×10⁻⁶ cm/s,8.4,,,1.55 ± 0.29 ×10⁻⁶ cm/s,3.15 ± 0.23 ×10⁻⁶ cm/s,,,"recovery at 2 µM ([1]; pH 7.4, Recovery after cell lysate extraction, intracellular drug included): > 80%; recovery at 2 µM ([1]; pH 7.4, Recovery, bidirectional transport, uncorrected): < 80%; recovery at 2 µM ([1]; pH 7.4, Recovery, with 1 µM Bafilomycin A1, bidirectional transport): 80 to 120%; Kp, Brain ([3]; ref Wang [2024]): 24.3; Kp,uu,Brian ([3]; ref Wang [2024]): 0.80; recovery at 2 h, 2 µM ([4]; A-B, LLC-PK1 MOCK): 54.1 ± 7.24%; recovery at 2 h, 2 µM ([4]; B-A, LLC-PK1 MOCK): 93.5 ± 6.72%"
Cc1ncc2n1-c1ccc(Cl)cc1C(c1ccccc1F)=NC2 [Midazolam],,31.6 ± 5.1 ×10⁻⁶ cm/s,,,27 ± 2.23 ×10⁻⁶ cm/s,,,,29.5 ± 1 ×10⁻⁶ cm/s,24.7 ± 0.41 ×10⁻⁶ cm/s,100 ± 3%,2.44^a,"fraction unbound at 6 h, 5 µM [9]: 0.022; Kp uu ([10]; in vivo): 1.42; recovery at 2 h, 2 µM [7]: 99.6 ± 1.73%; Protein binding in plasma [12]: 97.0^a %; efflux ratio at 2 h, 2 µM ([4]; LLC-PK1, pH 7.4): 1.32; efflux ratio at 2 h, 2 µM ([5]; LLC-PK1, pH 7.4): 0.91"
CC(C)(C)NCC(O)c1ccc(O)c(CO)c1 (stereo not drawn) [Salbutamol],,0.21 ± 0.02 ×10⁻⁶ cm/s,,,2.66 ± 0.21 ×10⁻⁶ cm/s,1.42,1.88 ± 0.35 ×10⁻⁶ cm/s,98.1 ± 2.21%,,,98.2 ± 0.36%,0.021^a,"fraction unbound at 6 h, 5 µM [13]: 0.78; fraction unbound at 6 h, 5 µM ([9]; rat, brain homogenate): 0.315; Kp uu [10]: 0.01; Papp A-B [14]: BLQ"
